Patent publication US20260365663A1, “EMOPAMIL-BINDING PROTEIN INHIBITORS AND USES THEREOF” (BIOGEN MA INC., priority 2022, published 2026)
Like-named read-outs stand apart in the source and are kept apart here.

Target: T1, EBP (Homo sapiens, UniProt Q15125)
T1 construct: HEK293T cells were utilized as the source of EBP enzyme; endogenous in cells; host or cells: HEK293T
Assay: EBP Functional Assay (EBP immunoaffinity LC-MS assay)
Format: biochemical
Method: The EBP immunoaffinity (IA) LC-MS assay measures the potency of small molecule inhibitors of EBP by quantifying their concentration-dependent changes in the enzyme's substrate and product using liquid chromatography atmospheric pressure chemical ionization multiple reaction monitoring mass spectrometry (LC-APCI MRM MS). HEK293T cells were utilized as the source of EBP enzyme. The enzyme was incubated with the small molecule inhibitors at variable concentrations for 30 min. Deuterated form of EBP substrate, zymosterol-d5 (Avanti Polar Lipids, Cat #700068P-1 mg), was then added and the plate was incubated at 37 °C for 4 h. Finally, the sterol isomers were extracted and injected to LC-APCI MRM MS. MRM transition used for the quantification for both zymosterol and dihydrolathosterol (substrate and product of EBP enzymatic reaction, respectively) is 372.3-203.2, CE 30 and DP 80 in positive ion mode. Percent conversion of the zymosterol-d5 to dehydrolathosterol-d5 was used to derive IC50 curves. Tasin-1 (1′-[(4-Methoxyphenyl)sulfonyl]-4-methyl-1,4′-bipiperidine, CAS 792927-06-1) was used as the reference small molecule inhibitor.
Percent conversion versus the compound concentration data were fit to the following 4-parameter logistic model to generate IC50 curves: […]

[1] = HEK293T cells as source of EBP enzyme, zymosterol-d5 substrate, inhibitor 30 min, then 37 °C for 4 h, percent conversion to dehydrolathosterol-d5 by LC-APCI MRM MS, read-out: EBP Functional Assay

T1 sequence (Q15125 whole entry): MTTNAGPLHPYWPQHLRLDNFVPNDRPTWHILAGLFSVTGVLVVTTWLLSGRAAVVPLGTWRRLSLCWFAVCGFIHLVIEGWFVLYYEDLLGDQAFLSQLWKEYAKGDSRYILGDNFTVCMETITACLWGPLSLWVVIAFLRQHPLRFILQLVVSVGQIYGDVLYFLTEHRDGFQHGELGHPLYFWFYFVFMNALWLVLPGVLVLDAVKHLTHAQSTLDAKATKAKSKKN

Compound	IC50 [1]	IC50
N#Cc1cc(F)cc(S(=O)(=O)N2CC3(CC(N4CC5(COC5)C4)CO3)C2)c1 (centres unmarked) [Example 28, 3-((7-(2-Oxa-6-azaspiro[3.3]heptan-6-yl)-5-oxa-2-azaspiro[3.4]octan-2-yl)sulfonyl)-5-fluorobenzonitrile]	500 to 3000 nM	–
Cc1cnc(S(=O)(=O)N2CC3(CCC(N4CCOCC4)C3)C2)c(C)c1 (centres unmarked) [Example 29, 4-(2-((3,5-Dimethylpyridin-2-yl)sulfonyl)-2-azaspiro[3.4]octan-6-yl)morpholine]	500 to 3000 nM	–
COc1ccc(S(=O)(=O)N2CC3(CCC(N4CC5(COC5)C4)C3)C2)c(C)n1 (centres unmarked) [Example 30, 6-(2-((6-Methoxy-2-methylpyridin-3-yl)sulfonyl)-2-azaspiro[3.4]octan-6-yl)-2-oxa-6-azaspiro[3.3]heptane]	500 to 3000 nM	–
COc1ccc(S(=O)(=O)N2CC3(CCC(NC4CCC(F)(F)CC4)C3)C2)c(C)n1 (centres unmarked) [Example 31, N-(4,4-Difluorocyclohexyl)-2-((6-methoxy-2-methylpyridin-3-yl)sulfonyl)-2-azaspiro[3.4]octan-6-amine]	100 to 500 nM	–
COCCN(C)C1CCC2(C1)CN(S(=O)(=O)c1ccc(OC)nc1C)C2 (centres unmarked) [Example 32, 2-((6-Methoxy-2-methylpyridin-3-yl)sulfonyl)-N-(2-methoxyethyl)-N-methyl-2-azaspiro[3.4]octan-6-amine]	< 100 nM	–
COCCN(C)C1CCC2(C1)CN(S(=O)(=O)c1cc(C(F)(F)F)nn1C)C2 (centres unmarked) [Example 33, N-(2-Methoxyethyl)-N-methyl-2-((1-methyl-3-(trifluoromethyl)-1H-pyrazol-5-yl)sulfonyl)-2-azaspiro[3.4]octan-6-amine]	500 to 3000 nM	–
COc1cc(S(=O)(=O)N2CC3(CCC(N4CCOCC4)C3)C2)n(C)n1 (centres unmarked) [Example 34, 4-(2-((3-Methoxy-1-methyl-1H-pyrazol-5-yl)sulfonyl)-2-azaspiro[3.4]octan-6-yl)morpholine]	100 to 500 nM	–
Cn1nc(C(F)(F)F)cc1S(=O)(=O)N1CC2(CCC(N3CCOCC3)C2)C1 (centres unmarked) [Example 35, 4-(2-((1-Methyl-3-(trifluoromethyl)-1H-pyrazol-5-yl)sulfonyl)-2-azaspiro[3.4]octan-6-yl)morpholine]	100 to 500 nM	–
Cc1cc(S(=O)(=O)N2CC3(CCC(N4CCOCC4)C3)C2)n(C)n1 (centres unmarked) [Example 36, 4-(2-((1,3-Dimethyl-1H-pyrazol-5-yl)sulfonyl)-2-azaspiro[3.4]octan-6-yl)morpholine]	–	100 to 500 nM
Cc1nn(C)c(S(=O)(=O)N2CC3(CCC(N4CCOCC4)C3)C2)c1Cl (centres unmarked) [Example 37, 4-(2-((4-Chloro-1,3-dimethyl-1H-pyrazol-5-yl)sulfonyl)-2-azaspiro[3.4]octan-6-yl)morpholine]	–	100 to 500 nM
Cc1nn(C)c(S(=O)(=O)N2CC3(CCC(N4CCOCC4)C3)C2)c1C(F)F (centres unmarked) [Example 38, 4-(2-((4-(Difluoromethyl)-1,3-dimethyl-1H-pyrazol-5-yl)sulfonyl)-2-azaspiro[3.4]octan-6-yl)morpholine]	–	100 to 500 nM
COc1ccc(S(=O)(=O)N2CC3(CCC(N4CCOCC4)C3)C2)c(C(F)(F)F)n1 (centres unmarked) [Example 39, 4-(2-((6-Methoxy-2-(trifluoromethyl)pyridin-3-yl)sulfonyl)-2-azaspiro[3.4]octan-6-yl)morpholine]	–	< 100 nM
Cc1nc(C(F)(F)F)ccc1S(=O)(=O)N1CC2(CCC(N3CCOCC3)C2)C1 (centres unmarked) [Example 40, 4-(2-((2-Methyl-6-(trifluoromethyl)pyridin-3-yl)sulfonyl)-2-azaspiro[3.4]octan-6-yl)morpholine]	–	< 100 nM
Cc1cc(C(F)(F)F)ncc1S(=O)(=O)N1CC2(CCC(N3CCOCC3)C2)C1 (centres unmarked) [Example 41, 4-(2-((4-Methyl-6-(trifluoromethyl)pyridin-3-yl)sulfonyl)-2-azaspiro[3.4]octan-6-yl)morpholine]	–	100 to 500 nM
Cc1nc(Cl)ccc1S(=O)(=O)N1CC2(CCC(N3CCOCC3)C2)C1 (centres unmarked) [Example 42, 4-(2-((6-Chloro-2-methylpyridin-3-yl)sulfonyl)-2-azaspiro[3.4]octan-6-yl)morpholine]	–	< 100 nM
Cc1cc(C)c(S(=O)(=O)N2CC3(CCC(N4CCOCC4)C3)C2)c(C)c1 (centres unmarked) [Example 43, 4-(2-(Mesitylsulfonyl)-2-azaspiro[3.4]octan-6-yl)morpholine]	< 100 nM	–
O=S(=O)(c1ccc(OC(F)F)cc1)N1CC2(CCC(N3CCOCC3)C2)C1 (centres unmarked) [Example 44, 4-(2-((4-(Difluoromethoxy)phenyl)sulfonyl)-2-azaspiro[3.4]octan-6-yl)morpholine]	–	500 to 3000 nM
Cc1ccc(S(=O)(=O)N2CC3(CCC(N4CCOCC4)C3)C2)c(C)c1 (centres unmarked) [Example 45, 4-(2-((2,4-Dimethylphenyl)sulfonyl)-2-azaspiro[3.4]octan-6-yl)morpholine]	–	< 100 nM

Compound	IC50 [1]	IC50
O=S(=O)(c1ccc(F)cc1F)N1CC2(CCC(N3CCOCC3)C2)C1 (centres unmarked) [Example 46, 4-(2-((2,4-Difluorophenyl)sulfonyl)-2-azaspiro[3.4]octan-6-yl)morpholine]	–	500 to 3000 nM
Cc1cc(C)c(S(=O)(=O)N2CC3(CCC(N4CCOCC4)C3)C2)cn1 (centres unmarked) [Example 47, 4-(2-((4,6-Dimethylpyridin-3-yl)sulfonyl)-2-azaspiro[3.4]octan-6-yl)morpholine]	–	100 to 500 nM
COc1ccc(S(=O)(=O)N2CC3(CCC(N4CCOCC4)C3)C2)c(C)n1 (centres unmarked) [Example 48, 4-(2-((6-methoxy-2-methylpyridin-3-yl)sulfonyl)-2-azaspiro[3.4]octan-6-yl)morpholine]	–	< 100 nM
Cn1nc(C(F)(F)F)cc1S(=O)(=O)N1CC2(CC[C@@H](N3CCOCC3)C2)C1 [Example 49, (R)-4-(2-((1-Methyl-3-(trifluoromethyl)-1H-pyrazol-5-yl)sulfonyl)-2-azaspiro[3.4]octan-6-yl)morpholine]	100 to 500 nM	–
N#Cc1cc(F)cc(S(=O)(=O)N2CC3(CC[C@@H](N4CCOCC4)C3)C2)c1 [Example 50, (R)-3-Fluoro-5-((6-morpholino-2-azaspiro[3.4]octan-2-yl)sulfonyl)benzonitrile]	–	500 to 3000 nM
Cn1nc(C(F)(F)F)cc1S(=O)(=O)N1CC2(CC[C@H](N3CCOCC3)C2)C1 [Example 51, (S)-4-(2-((1-methyl-3-(trifluoromethyl)-1H-pyrazol-5-yl)sulfonyl)-2-azaspiro[3.4]octan-6-yl)morpholine]	100 to 500 nM	–
N#Cc1cc(F)cc(S(=O)(=O)N2CC3(CC[C@H](N4CCOCC4)C3)C2)c1 [Example 52, (S)-3-Fluoro-5-((6-morpholino-2-azaspiro[3.4]octan-2-yl)sulfonyl)benzonitrile]	–	500 to 3000 nM
Cc1cc(C)c(S(=O)(=O)N2CC3(CC(N4CCOCC4)CO3)C2)c(C)c1 (centres unmarked) [Example 53, 2-(Mesitylsulfonyl)-7-morpholino-5-oxa-2-azaspiro[3.4]octane]	100 to 500 nM	–
CC1CCN(C2COC3(C2)CN(S(=O)(=O)c2ccc(OC(F)F)cc2)C3)CC1 (centres unmarked) [Example 54, 2-((4-(Difluoromethoxy)phenyl)sulfonyl)-7-(4-methylpiperidin-1-yl)-5-oxa-2-azaspiro[3.4]octane]	100 to 500 nM	–
Cc1cc(S(=O)(=O)N2CC3(CC(N4CCC(C)CC4)CO3)C2)n(C)n1 (centres unmarked) [Example 55, 2-((1,3-Dimethyl-1H-pyrazol-5-yl)sulfonyl)-7-(4-methylpiperidin-1-yl)-5-oxa-2-azaspiro[3.4]octane]	–	100 to 500 nM
COc1ccc(S(=O)(=O)N2CC3(CC(N4CCC(C)CC4)CO3)C2)c(C)n1 (centres unmarked) [Example 56, 2-((6-Methoxy-2-methylpyridin-3-yl)sulfonyl)-7-(4-methylpiperidin-1-yl)-5-oxa-2-azaspiro[3.4]octane]	–	< 100 nM
Cn1nc(C(F)(F)F)cc1S(=O)(=O)N1CC2(C[C@@H](N3CCOCC3)CO2)C1 [Example 57, (R)-2-((1-methyl-3-(trifluoromethyl)-1H-pyrazol-5-yl)sulfonyl)-7-morpholino-5-oxa-2-azaspiro[3.4]octane]	500 to 3000 nM	–
CN(C1CCC(F)(F)CC1)C1COC2(C1)CN(S(=O)(=O)c1cc(C#N)ccc1F)C2 (centres unmarked) [Example 59, 3-((7-((4,4-Difluorocyclohexyl)(methyl)amino)-5-oxa-2-azaspiro[3.4]octan-2-yl)sulfonyl)-4-fluorobenzonitrile]	< 100 nM	–
Cc1nc(C(C)(F)F)ccc1S(=O)(=O)N1CC2(CC(N3CC4(CCO4)C3)C2)C1 [Example 68, 6-(2-((6-(1,1-difluoroethyl)-2-methylpyridin-3-yl)sulfonyl)-2-azaspiro[3.3]heptan-6-yl)-1-oxa-6-azaspiro[3.3]heptane]	–	500 to 3000 nM
Cc1nc(C(C)(F)F)ccc1S(=O)(=O)N1CC2(CC(NC3COC3)C2)C1 [Example 69, 2-((6-(1,1-difluoroethyl)-2-methylpyridin-3-yl)sulfonyl)-N-(oxetan-3-yl)-2-azaspiro[3.3]heptan-6-amine]	500 to 3000 nM	–
Cc1nc(C(C)(F)F)ccc1S(=O)(=O)N1CC2(CC(NC3CC4(COC4)C3)C2)C1 (centres unmarked) [Example 70, 2-((6-(1,1-difluoroethyl)-2-methylpyridin-3-yl)sulfonyl)-N-(2-oxaspiro[3.3]heptan-6-yl)-2-azaspiro[3.3]heptan-6-amine]	100 to 500 nM	–
Cc1nc(C(C)(F)F)ccc1S(=O)(=O)N1CC2(CC(NCC3CCOCC3)C2)C1 [Example 71, 2-((6-(1,1-difluoroethyl)-2-methylpyridin-3-yl)sulfonyl)-N-((tetrahydro-2H-pyran-4-yl)methyl)-2-azaspiro[3.3]heptan-6-amine]	< 100 nM	–
